From PubChem BioAssay AID1963844 (Molecular Pharmacology Branch, DTP, NCI, 2024)

Test system: 422866-222-R5-J1-PDC complex spheroid viability
Test: Anticancer human tumor 422866-222-R5-J1-PDC patient-derived pancreatic adenocarcinoma cell line growth inhibition [POLQ]
Details: for IC50: curve of first compound; for viability, T/C: stronger effect = lower value
How it was run: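 PDC + HUVEC + MSC complex spheroids; POLQ inhibitors ± partner drugs; top conc. at/near clinical Cmax, else 10 microM (SN-38 1 microM), half-log dilutions; 37 degrees C, 5% CO2.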

[1] = second compound 0.0316 µM, first compound 0.0316 µM
[2] = second compound 0.0316 µM, first compound 0.1 µM
[3] = second compound 0.0316 µM, first compound 0.316 µM
[4] = second compound 0.0316 µM, first compound 1 µM
[5] = second compound 0.0316 µM, first compound 3.16 µM
[6] = second compound 0.0316 µM, first compound 10 µM
[7] = second compound 0.1 µM, first compound 0.0316 µM
[8] = second compound 0.1 µM, first compound 0.1 µM
[9] = second compound 0.1 µM, first compound 0.316 µM
[10] = second compound 0.1 µM, first compound 1 µM
[11] = second compound 0.1 µM, first compound 3.16 µM
[12] = second compound 0.1 µM, first compound 10 µM
[13] = second compound 0.316 µM, first compound 0.0316 µM
[14] = second compound 0.316 µM, first compound 0.1 µM
[15] = second compound 0.316 µM, first compound 0.316 µM
[16] = second compound 0.316 µM, first compound 1 µM
[17] = second compound 0.316 µM, first compound 3.16 µM
[18] = second compound 0.316 µM, first compound 10 µM
[19] = second compound 1 µM, first compound 0.0316 µM
[20] = second compound 1 µM, first compound 0.1 µM
[21] = second compound 1 µM, first compound 0.316 µM
[22] = second compound 1 µM, first compound 1 µM
[23] = second compound 1 µM, first compound 3.16 µM
[24] = second compound 1 µM, first compound 10 µM
[25] = second compound 3.16 µM, first compound 0.0316 µM
[26] = second compound 3.16 µM, first compound 0.1 µM
[27] = second compound 3.16 µM, first compound 0.316 µM
[28] = second compound 3.16 µM, first compound 1 µM
[29] = second compound 3.16 µM, first compound 3.16 µM
[30] = second compound 3.16 µM, first compound 10 µM
[31] = second compound 10 µM, first compound 0.0316 µM
[32] = second compound 10 µM, first compound 0.1 µM
[33] = second compound 10 µM, first compound 0.316 µM
[34] = second compound 10 µM, first compound 1 µM
[35] = second compound 10 µM, first compound 3.16 µM
[36] = second compound 10 µM, first compound 10 µM
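Also: spheroids exposed to compounds for one week before readout.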
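For viability, T/C in this document: percent of DMSO vehicle wells luminescence so 100% = untreated viability.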

Work on `Nc1ccn(C2OC(CO)C(O)C2(F)F)c(=O)n1` (stereo not drawn) + Cc1cccc(N(C)C(=O)C2C(O)CCN2c2nc(C)cc(C(F)(F)F)c2C#N)c1 yielded an IC50 (second compound 0.0316 µM) of 98.9 nM, an IC50 (second compound 0.1 µM) of 76.6 nM and an IC50 (second compound 0.316 µM) of 82.4 nM. It also gave an IC50 (second compound 1 µM) of 119 nM, an IC50 (second compound 3.16 µM) of 154 nM and an IC50 (second compound 10 µM) of 120 nM. The viability, T/C [1] was 77.9%, the viability, T/C [2] was 50.4% and the viability, T/C [3] was 40.4%. The viability, T/C [4] was 36.1%, the viability, T/C [5] was 36.1% and the viability, T/C [6] was 42.9%. It also gave a viability, T/C [7] of 68.8%, a viability, T/C [8] of 43.2% and a viability, T/C [9] of 40.5%. For the same compound, the viability, T/C [10] was 38.6%, the viability, T/C [11] was 35.5% and the viability, T/C [12] was 35.4%. It also gave a viability, T/C [13] of 69%, a viability, T/C [14] of 45.3% and a viability, T/C [15] of 40.3%. For the same compound, the viability, T/C [16] was 38.1%, the viability, T/C [17] was 35% and the viability, T/C [18] was 34.8%. It also gave a viability, T/C [19] of 68.7%, a viability, T/C [20] of 51.6% and a viability, T/C [21] of 41.4%. It also gave a viability, T/C [22] of 37.3%, a viability, T/C [23] of 38.6% and a viability, T/C [24] of 40.2%. It also gave a viability, T/C [25] of 83.7%, a viability, T/C [26] of 54.2% and a viability, T/C [27] of 41.9%. For the same compound, the viability, T/C [28] was 43.2%, the viability, T/C [29] was 37.8% and the viability, T/C [30] was 38%. The viability, T/C [31] was 68%, the viability, T/C [32] was 51.9% and the viability, T/C [33] was 45.2%. It also gave a viability, T/C [34] of 39.9%, a viability, T/C [35] of 38.9% and a viability, T/C [36] of 48.5%.
`CCc1cc2c(N3CCc4c(cc(Cn5ccnc5)cc4-c4cn(C)nc4C(F)(F)F)C3=O)ccnc2c(OC)n1` + Cc1cccc(N(C)C(=O)C2C(O)CCN2c2nc(C)cc(C(F)(F)F)c2C#N)c1 gave an IC50 (second compound 0.0316 µM) of over 10000 nM, an IC50 (second compound 0.1 µM) of over 10000 nM and an IC50 (second compound 0.316 µM) of over 10000 nM. It also gave an IC50 (second compound 1 µM) of over 10000 nM, an IC50 (second compound 3.16 µM) of over 10000 nM and an IC50 (second compound 10 µM) of over 10000 nM. For the same compound, the viability, T/C [1] was 96.1%, the viability, T/C [2] was 99.6% and the viability, T/C [3] was 93.3%. It also gave a viability, T/C [4] of 88.2%, a viability, T/C [5] of 87.6% and a viability, T/C [6] of 91.8%. For the same compound, the viability, T/C [7] was 88.4%, the viability, T/C [8] was 87.9% and the viability, T/C [9] was 83.5%. For the same compound, the viability, T/C [10] was 112%, the viability, T/C [11] was 91.4% and the viability, T/C [12] was 99.2%. The viability, T/C [13] was 90.7%, the viability, T/C [14] was 84.7% and the viability, T/C [15] was 91.7%. The viability, T/C [16] was 96.3%, the viability, T/C [17] was 96.2% and the viability, T/C [18] was 112%. For the same compound, the viability, T/C [19] was 73%, the viability, T/C [20] was 80.2% and the viability, T/C [21] was 86.1%. For the same compound, the viability, T/C [22] was 98.2%, the viability, T/C [23] was 97.7% and the viability, T/C [24] was 114%. For the same compound, the viability, T/C [25] was 87.4%, the viability, T/C [26] was 87.6% and the viability, T/C [27] was 89.5%. For the same compound, the viability, T/C [28] was 85.4%, the viability, T/C [29] was 108% and the viability, T/C [30] was 115%. It also gave a viability, T/C [31] of 100%, a viability, T/C [32] of 94.2% and a viability, T/C [33] of 90.7%. It also gave a viability, T/C [34] of 93.5%, a viability, T/C [35] of 107% and a viability, T/C [36] of 105%.
`CC(C)n1c(=O)n(C)c2cnc3cc(F)c(-c4ccc(OCCCN5CCCCC5)nc4)cc3c21` + COC1C(OC(N)=O)C(O)C(Oc2ccc3c(O)c(NC(=O)c4ccc(O)c(CC=C(C)C)c4)c(=O)oc3c2C)OC1(C)C was tested, and the IC50 (second compound 0.0316 µM) was under 31.6 nM, the IC50 (second compound 0.1 µM) was under 31.6 nM and the IC50 (second compound 0.316 µM) was under 31.6 nM. It also gave an IC50 (second compound 1 µM) of under 31.6 nM, an IC50 (second compound 3.16 µM) of under 31.6 nM and an IC50 (second compound 10 µM) of under 31.6 nM. It also gave a viability, T/C [1] of 40.7%, a viability, T/C [2] of 36.1% and a viability, T/C [3] of 34.5%. The viability, T/C [4] was 38.5%, the viability, T/C [5] was 39.4% and the viability, T/C [6] was 37.2%. The viability, T/C [7] was 42.6%, the viability, T/C [8] was 38.5% and the viability, T/C [9] was 39.1%. The viability, T/C [10] was 37.8%, the viability, T/C [11] was 36.9% and the viability, T/C [12] was 36.2%. The viability, T/C [13] was 40.6%, the viability, T/C [14] was 36.1% and the viability, T/C [15] was 42.4%. The viability, T/C [16] was 44.7%, the viability, T/C [17] was 34% and the viability, T/C [18] was 30.2%. It also gave a viability, T/C [19] of 34.6%, a viability, T/C [20] of 45.8% and a viability, T/C [21] of 37.2%. The viability, T/C [22] was 38.6%, the viability, T/C [23] was 39.2% and the viability, T/C [24] was 32.1%. It also gave a viability, T/C [25] of 44%, a viability, T/C [26] of 40% and a viability, T/C [27] of 42.3%. The viability, T/C [28] was 33.4%, the viability, T/C [29] was 35.4% and the viability, T/C [30] was 39.6%. The viability, T/C [31] was 39.1%, the viability, T/C [32] was 39% and the viability, T/C [33] was 38.8%. For the same compound, the viability, T/C [34] was 43.4%, the viability, T/C [35] was 35.2% and the viability, T/C [36] was 32.6%.
With `COc1cccc(OCCCN)c1-c1cc(Nc2cnc(C#N)cn2)n[nH]1` + COC1C(OC(N)=O)C(O)C(Oc2ccc3c(O)c(NC(=O)c4ccc(O)c(CC=C(C)C)c4)c(=O)oc3c2C)OC1(C)C the IC50 (second compound 0.0316 µM) was 4.59 nM, the IC50 (second compound 0.1 µM) was 4.16 nM and the IC50 (second compound 0.316 µM) was under 3.16 nM. For the same compound, the IC50 (second compound 1 µM) was under 3.16 nM, the IC50 (second compound 3.16 µM) was 5.14 nM and the IC50 (second compound 10 µM) was under 3.16 nM. It also gave a viability, T/C (second compound 0.0316 µM, first compound 0.00316 µM) of 55.9%, a viability, T/C (second compound 0.0316 µM, first compound 0.01 µM) of 37.4% and a viability, T/C [1] of 33.7%. For the same compound, the viability, T/C [2] was 30.7%, the viability, T/C [3] was 26.7% and the viability, T/C [4] was 34.3%. The viability, T/C (second compound 0.1 µM, first compound 0.00316 µM) was 53%, the viability, T/C (second compound 0.1 µM, first compound 0.01 µM) was 42.1% and the viability, T/C [7] was 32.3%. The viability, T/C [8] was 29.5%, the viability, T/C [9] was 26.8% and the viability, T/C [10] was 42.6%. The viability, T/C (second compound 0.316 µM, first compound 0.00316 µM) was 48.5%, the viability, T/C (second compound 0.316 µM, first compound 0.01 µM) was 39.9% and the viability, T/C [13] was 28.5%. It also gave a viability, T/C [14] of 37.7%, a viability, T/C [15] of 32.1% and a viability, T/C [16] of 35.1%. The viability, T/C (second compound 1 µM, first compound 0.00316 µM) was 55.9%, the viability, T/C (second compound 1 µM, first compound 0.01 µM) was 39.3% and the viability, T/C [19] was 32.7%. It also gave a viability, T/C [20] of 37.3%, a viability, T/C [21] of 32.7% and a viability, T/C [22] of 47%. It also gave a viability, T/C (second compound 3.16 µM, first compound 0.00316 µM) of 54.7%, a viability, T/C (second compound 3.16 µM, first compound 0.01 µM) of 43% and a viability, T/C [25] of 41.4%. The viability, T/C [26] was 30.1%, the viability, T/C [27] was 41.2% and the viability, T/C [28] was 32.8%. The viability, T/C (second compound 10 µM, first compound 0.00316 µM) was 54.2%, the viability, T/C (second compound 10 µM, first compound 0.01 µM) was 38.7% and the viability, T/C [31] was 39.1%. It also gave a viability, T/C [32] of 38%, a viability, T/C [33] of 30.9% and a viability, T/C [34] of 38.4%.
